The values below come from US9567302B2, “Carbamate compounds and of making and using same” (Abide Therapeutics, Inc., priority 2012, dated 2017).

What all share (type): biochemical
What all share (parameters): from tissue

One experiment has as its target T1, ABHD6 (Mus musculus, UniProt Q8R2Y0).
T1 sequence (Q8R2Y0 1-336): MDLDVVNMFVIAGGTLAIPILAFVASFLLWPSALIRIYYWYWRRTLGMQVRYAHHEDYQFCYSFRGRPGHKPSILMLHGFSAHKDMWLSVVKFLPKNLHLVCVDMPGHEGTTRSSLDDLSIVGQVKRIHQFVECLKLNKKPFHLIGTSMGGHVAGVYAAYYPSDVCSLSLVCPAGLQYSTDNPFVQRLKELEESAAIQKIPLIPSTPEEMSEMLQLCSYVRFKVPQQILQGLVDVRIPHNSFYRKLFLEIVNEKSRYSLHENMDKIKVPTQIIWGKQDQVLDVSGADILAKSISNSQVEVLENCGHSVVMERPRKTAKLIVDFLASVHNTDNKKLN
Description: In vitro competitive ABPP, % inhibition at fixed concentration, ABHD6. In a few lines: (§1)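 Mouse brain membrane proteome or cell lysate at 1.0 mg/ml was preincubated with inhibitor for 30 min at 37° C, then labelled with FP-Rh for another 30 min. After SDS-PAGE, activity was quantified from the fluorescent intensity of the MAGL, ABHD6 and FAAH bands.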

The next experiment has as its target T2, FAAH (Mus musculus, UniProt O08914).
T2 sequence (O08914 1-579): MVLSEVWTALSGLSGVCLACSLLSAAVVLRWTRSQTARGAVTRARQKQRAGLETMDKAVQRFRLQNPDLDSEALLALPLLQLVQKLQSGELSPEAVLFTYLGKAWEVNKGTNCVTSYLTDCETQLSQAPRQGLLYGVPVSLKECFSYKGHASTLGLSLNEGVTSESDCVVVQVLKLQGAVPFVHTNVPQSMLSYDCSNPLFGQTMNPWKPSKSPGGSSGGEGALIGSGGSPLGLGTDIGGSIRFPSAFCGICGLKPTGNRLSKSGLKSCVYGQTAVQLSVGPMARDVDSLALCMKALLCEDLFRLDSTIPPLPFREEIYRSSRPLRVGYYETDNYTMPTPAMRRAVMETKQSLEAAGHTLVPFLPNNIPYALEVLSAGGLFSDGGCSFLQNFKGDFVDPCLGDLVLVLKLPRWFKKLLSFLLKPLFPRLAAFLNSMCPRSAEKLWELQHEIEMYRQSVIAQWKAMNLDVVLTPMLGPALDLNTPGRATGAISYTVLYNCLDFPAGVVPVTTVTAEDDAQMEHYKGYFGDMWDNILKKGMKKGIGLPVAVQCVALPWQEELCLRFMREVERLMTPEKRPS
Description: In vitro competitive ABPP, % inhibition at fixed concentration, FAAH. In outline: as §1

For a further experiment, the target named is T3, MAGL (Mus musculus, UniProt O35678).
T3 sequence (O35678 1-303): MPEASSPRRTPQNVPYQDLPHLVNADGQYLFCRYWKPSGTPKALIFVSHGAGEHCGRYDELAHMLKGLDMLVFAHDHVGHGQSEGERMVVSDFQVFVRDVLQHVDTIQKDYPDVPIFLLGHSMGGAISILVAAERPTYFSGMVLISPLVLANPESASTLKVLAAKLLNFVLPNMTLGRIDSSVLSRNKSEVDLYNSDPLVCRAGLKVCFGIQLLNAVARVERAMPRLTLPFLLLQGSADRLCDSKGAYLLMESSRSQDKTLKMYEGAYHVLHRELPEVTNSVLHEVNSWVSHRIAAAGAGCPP
Description: In vitro competitive ABPP, % inhibition at fixed concentration, MAGL. In outline: as §1

As a reminder, the inhibition is the drop in the measured response relative to a control, in per cent.

Structures are written as SMILES.

For the molecule `C[C@@H]1CN(Cc2ccc(N3CCOCC3)cc2OC(F)(F)F)CCN1C(=O)ON1C(=O)CCC1=O` [Example 103, 2,5-Dioxopyrrolidin-1-yl (2R)-2-methyl-4-{[4-(morpholin-4-yl)-2-(trifluoromethoxy)phenyl]methyl}piperazine-1-carboxylate], the inhibition at 1 µM at ABHD6, on FAAH and on MAGL was under 25% in each case.
With `Cc1ccc(N2CCOCC2)c(CN2CCN(C(=O)ON3C(=O)CCC3=O)CC2)c1` [Example 127, 2,5-Dioxopyrrolidin-1-yl 4-{[5-methyl-2-(morpholin-4-yl)phenyl]methyl}piperazine-1-carboxylate], the inhibition at 1 µM was 25 to 75% on ABHD6, under 25% at FAAH and 25 to 75% at MAGL.
Regarding `O=C(ON1C(=O)CCC1=O)N1CCN(Cc2ccc(Cl)cc2N2CCn3ncnc3C2)CC1` [Example 117, 2,5-Dioxopyrrolidin-1-yl 4-[(4-chloro-2-{5H,6H,7H,8H-[1,2,4]triazolo[1,5-a]pyrazin-7-yl}phenyl)methyl]piperazine-1-carboxylate], the results for the inhibition at 1 µM on ABHD6, at FAAH and at MAGL were under 25%, under 25% and 25 to 75%, respectively.
As for `CC(C)c1cc(N2CCCC2)ccc1CN1CCN(C(=O)ON2C(=O)CCC2=O)CC1` [Example 186, 2,5-Dioxopyrrolidin-1-yl 4-{[2-(propan-2-yl)-4-(pyrrolidin-1-yl)phenyl]methyl}piperazine-1-carboxylate], the results for the inhibition at 1 µM at ABHD6, on FAAH and on MAGL were 25 to 75%, under 25% and 25 to 75%, respectively.
Consider `Cc1cc(-c2cccnc2C)ccc1CN1CCN(C(=O)ON2C(=O)CCC2=O)CC1` [Example 170, 2,5-Dioxopyrrolidin-1-yl 4-{[2-methyl-4-(2-methylpyridin-3-yl)phenyl]methyl}piperazine-1-carboxylate], for which the figures for the inhibition at 1 µM on ABHD6, at FAAH and at MAGL were 25 to 75%, under 25% and 25 to 75%, respectively.
Take `Cc1ccccc1-c1ccc(CN2CCN(C(=O)ON3C(=O)CCC3=O)CC2)nc1C` [Example 179, 2,5-Dioxopyrrolidin-1-yl 4-{[6-methyl-5-(2-methylphenyl)pyridin-2-yl]methyl}piperazine-1-carboxylate]: the inhibition at 1 µM is 25 to 75% at ABHD6, under 25% at FAAH and 25 to 75% at MAGL.
Turning to `Cn1cc(CN2CCN(C(=O)ON3C(=O)CCC3=O)CC2)c(-c2ccccc2Cl)n1` [Example 140, 2,5-Dioxopyrrolidin-1-yl 4-{[3-(2-chlorophenyl)-1-methyl-1H-pyrazol-4-yl]methyl}piperazine-1-carboxylate], the inhibition at 1 µM was 25 to 75% on ABHD6, under 25% on FAAH and 25 to 75% at MAGL.
Consider `Cc1cccc(-c2ccc(CN3CCN(C(=O)ON4C(=O)CCC4=O)CC3)c(Oc3ccccc3)c2)c1` [Example 169, 2,5-Dioxopyrrolidin-1-yl 4-{[4-(3-methylphenyl)-2-phenoxyphenyl]methyl}piperazine-1-carboxylate], for which the inhibition at 1 µM on ABHD6 was over 75%; on FAAH, under 25%; at MAGL, 25 to 75%.
`O=C(ON1C(=O)CCC1=O)N1CCN(Cc2ccc(N3CCOCC3)cc2C(F)(F)F)CC1` [Example 76, 2,5-Dioxopyrrolidin-1-yl 4-{[4-(morpholin-4-yl)-2-(trifluoromethyl)phenyl]methyl}piperazine-1-carboxylate]: the inhibition at 1 µM on ABHD6 was 25 to 75%; on FAAH, under 25%; at MAGL, 25 to 75%.
For `Cc1cnccc1-c1ccc(CN2CCN(C(=O)ON3C(=O)CCC3=O)CC2)c(F)c1` [Example 177, 2,5-Dioxopyrrolidin-1-yl 4-{[2-fluoro-4-(3-methylpyridin-4-yl)phenyl]methyl}piperazine-1-carboxylate], the inhibition at 1 µM at ABHD6 is over 75%; at FAAH it was under 25%; at MAGL, 25 to 75%.
For the molecule `Cc1ccc(N2CCCC2)c(CN2CCN(C(=O)ON3C(=O)CCC3=O)CC2)c1` [Example 128, 2,5-Dioxopyrrolidin-1-yl 4-{[5-methyl-2-(pyrrolidin-1-yl)phenyl]methyl}piperazine-1-carboxylate], the results for the inhibition at 1 µM at ABHD6, on FAAH and on MAGL were under 25%, under 25% and 25 to 75%, respectively.
Regarding `O=C(ON1C(=O)CCC1=O)N1CCN(Cc2ccc(Cl)cc2C(=O)N2CCC2)CC1` [Example 197, 2,5-Dioxopyrrolidin-1-yl 4-{[2-(azetidine-1-carbonyl)-4-chlorophenyl]methyl}piperazine-1-carboxylate], the inhibition at 1 µM on ABHD6, at FAAH and on MAGL was under 25% throughout.
For the molecule `O=C(ON1C(=O)CCC1=O)N1CCN(Cc2ccc(Cl)c(C(=O)N3CCOCC3)c2)CC1` [Example 209, 2,5-Dioxopyrrolidin-1-yl 4-{[4-chloro-3-(morpholine-4-carbonyl)phenyl]methyl}piperazine-1-carboxylate], the inhibition at 1 µM at ABHD6, at FAAH and on MAGL was under 25% throughout.
With `C[C@@H]1CN(Cc2ccc(N3CCOCC3)cc2C(F)(F)F)CCN1C(=O)ON1C(=O)CCC1=O` [Example 80, 2,5-Dioxopyrrolidin-1-yl (2R)-2-methyl-4-{[4-(morpholin-4-yl)-2-(trifluoromethyl)phenyl]methyl}piperazine-1-carboxylate], the inhibition at 1 µM on ABHD6, on FAAH and on MAGL was under 25% in each case.
On to `O=C(ON1C(=O)CCC1=O)N1CCN(Cc2ccc(Cl)cc2C(=O)N2CCOCC2)CC1` [Example 195, 2,5-Dioxopyrrolidin-1-yl 4-{[4-chloro-2-(morpholine-4-carbonyl)phenyl]methyl}piperazine-1-carboxylate], for which the inhibition at 1 µM at ABHD6, at FAAH and at MAGL was under 25% in each case.
Turning to `Cc1cc(-c2ccc(CN3CCN(C(=O)ON4C(=O)CCC4=O)CC3)c(C)c2)ccn1` [Example 159, 2,5-Dioxopyrrolidin-1-yl 4-{[2-methyl-4-(2-methylpyridin-4-yl)phenyl]methyl}piperazine-1-carboxylate], the inhibition at 1 µM is 25 to 75% on ABHD6, under 25% at FAAH and 25 to 75% on MAGL.
In the case of `Cc1c(CN2CCN(C(=O)ON3C(=O)CCC3=O)CC2)cccc1C(=O)N1CCC1` [Example 207, 2,5-Dioxopyrrolidin-1-yl 4-{[3-(azetidine-1-carbonyl)-2-methylphenyl]methyl}piperazine-1-carboxylate], the figures for the inhibition at 1 µM on ABHD6, at FAAH and at MAGL were over 75%, under 25% and 25 to 75%, respectively.
On to `Cc1nc(CN2CCN(C(=O)ON3C(=O)CCC3=O)CC2)ccc1-c1cccc(F)c1` [Example 181, 2,5-Dioxopyrrolidin-1-yl 4-{[5-(3-fluorophenyl)-6-methylpyridin-2-yl]methyl}piperazine-1-carboxylate], for which the results for the inhibition at 1 µM on ABHD6, on FAAH and at MAGL were under 25%, under 25% and 25 to 75%, respectively.
